We go through two compounds from US4349672A, “Cephalosporin derivatives” (Hoffmann-La Roche Inc., priority 1979, dated 1982).

Structures can show the parent of a compound that is named as a salt.

Holding throughout (test): Activity in vitro: minimum inhibitory concentration
Common to all, as to type: cell-based

In one assay the test system is Acinetobacter anitratus. As to conditions: Acinetobacter calcoaceticus, gram negative. The source says:
(§1) Activity in vitro: Minimum inhibitory concentration (μg/ml)

The next assay concerns Citrobacter freundii.
From the text: as §1

A further assay relates to Enterobacter aerogenes. The settings on record: Klebsiella aerogenes.
From the text: as §1

A further assay deals with Enterobacter cloacae.
From the text: as §1

Another assay relates to Escherichia coli.
From the text: as §1

Another assay relates to Klebsiella pneumoniae.
From the text: as §1

For a further assay, the system named is Proteus inconstans. The settings on record: Providencia alcalifaciens, gram negative.
From the text: as §1

A further assay concerns Proteus mirabilis.
From the text: as §1

The next assay has as its system Proteus rettgeri. As to conditions: Providencia rettgeri, gram negative.
From the text: as §1

A further assay deals with Proteus vulgaris.
From the text: as §1

For a further assay, the system named is Serratia marcescens.
From the text: as §1

In the next assay the test system is Streptococcus pyogenes. The settings on record: gram positive.
From the text: as §1

Setting [1] is: Citrobacter freundii Strain 1, gram negative.
The mark [2] stands for this setting: Citrobacter freundii Strain 2, gram negative.
Setting [3] is: Enterobacter aerogenes Strain 1, gram negative.
The mark [4] stands for this setting: Enterobacter aerogenes Strain 2, gram negative.
[5] abbreviates: Enterobacter cloacae Strain 1, gram negative.
Setting [6] is: Enterobacter cloacae Strain 2, gram negative.
Setting [7] is: Escherichia coli Strain 1, gram negative.
The mark [8] stands for this setting: Escherichia coli Strain 2, gram negative.
[9] abbreviates: Escherichia coli Strain 3, gram negative.
[10] abbreviates: Escherichia coli Strain 4, gram negative.
The mark [11] stands for this setting: Klebsiella pneumoniae Strain 1, gram negative.
Where [12] appears, read: Klebsiella pneumoniae Strain 2, gram negative.
[13] abbreviates: Klebsiella pneumoniae Strain 3, gram negative.
The mark [14] stands for this setting: Proteus mirabilis Strain 1, gram negative.
Setting [15] is: Proteus mirabilis Strain 2, gram negative.
[16] abbreviates: Proteus vulgaris Strain 1, gram negative.
The mark [17] stands for this setting: Proteus vulgaris Strain 2, gram negative.
Where [18] appears, read: Proteus vulgaris Strain 3, gram negative.
Where [19] appears, read: Serratia marcescens Strain 1, gram negative.
Setting [20] is: Serratia marcescens Strain 2, gram negative.

Turning to `CO/N=C(\C(=O)N[C@@H]1C(=O)N2C(C(=O)O)=C(CSc3nc(=O)c(O)nn3C)C[S@+]([O-])[C@H]12)c1csc(N)n1` [Derivative A, disodium salt of (6R,7R)-7-[2-(2-amino-4-thiazolyl)-2-[(Z)-methoxyimino]acetamido]-3-[[(2,5-dihydro-6-hydroxy-2-methyl-5-oxo-as-triazin-3-yl)thio]methyl]-8-oxo-5-thia-1-azabicyclo[4.2.0]oct-2-ene-2-carboxylic acid 5-(s)-oxide], the MIC (as a rule, the lowest concentration found to suppress growth) was 25 µg/mL with Acinetobacter anitratus; 0.19 µg/mL against Citrobacter freundii (setting [1]); 0.05 µg/mL against Citrobacter freundii (setting [2]); 0.19 µg/mL in the assay with Enterobacter aerogenes (setting [3]); 0.1 µg/mL against Enterobacter aerogenes (setting [4]); 3.1 µg/mL against Enterobacter cloacae (setting [5]). The MIC in the assay on Enterobacter cloacae (setting [6]) was 0.19 µg/mL; against Escherichia coli (setting [7]) it was 0.025 µg/mL; against Escherichia coli (setting [8]), 0.19 µg/mL; against Escherichia coli (setting [9]) it was 0.1 µg/mL; in the assay with Escherichia coli (setting [10]), 0.1 µg/mL; against Klebsiella pneumoniae (setting [11]), 0.1 µg/mL. Further, the MIC against Klebsiella pneumoniae (setting [12]) is 0.025 µg/mL; in the assay on Klebsiella pneumoniae (setting [13]) it was 0.1 µg/mL; in the assay on Proteus inconstans it was not above 0.006 µg/mL; against Proteus mirabilis (setting [14]), 0.025 µg/mL; with Proteus mirabilis (setting [15]), 0.39 µg/mL; against Proteus rettgeri it was not above 0.006 µg/mL. Further, the MIC was 0.1 µg/mL against Proteus vulgaris (setting [16]); 0.1 µg/mL in the assay on Proteus vulgaris (setting [17]); 0.05 µg/mL in the assay with Proteus vulgaris (setting [18]); 0.39 µg/mL against Serratia marcescens (setting [19]); 0.19 µg/mL in the assay on Serratia marcescens (setting [20]); 1.6 µg/mL in the assay with Streptococcus pyogenes.
On to `CO/N=C(\C(=O)N[C@@H]1C(=O)N2C(C(=O)O)=C(CSc3nc(=O)c(O)nn3C)CS(=O)(=O)[C@H]12)c1csc(N)n1` [Derivative B, disodium salt of (6R,7R)-7-[2-(2-amino-4-thiazolyl)-2-[(Z)-methoxyimino]acetamido]-3-[[(2,5-dihydro-6-hydroxy-2-methyl-5-oxo-as-triazin-3-yl)thio]methyl]-8-oxo-5-thia-1-azabicyclo[4.2.0]oct-2-ene-2-carboxylic acid 5,5-dioxide], for which the MIC was 100 µg/mL in the assay on Acinetobacter anitratus; 0.19 µg/mL against Citrobacter freundii (setting [1]); 0.19 µg/mL against Citrobacter freundii (setting [2]); 0.39 µg/mL with Enterobacter aerogenes (setting [3]); 0.1 µg/mL against Enterobacter aerogenes (setting [4]); 6.3 µg/mL against Enterobacter cloacae (setting [5]). In addition, the MIC against Enterobacter cloacae (setting [6]) is 0.39 µg/mL; in the assay with Escherichia coli (setting [7]), 0.05 µg/mL; in the assay on Escherichia coli (setting [8]), 0.39 µg/mL; against Escherichia coli (setting [9]), 0.19 µg/mL; in the assay on Escherichia coli (setting [10]), 0.39 µg/mL; in the assay on Klebsiella pneumoniae (setting [11]), 0.39 µg/mL. Besides, the MIC in the assay with Klebsiella pneumoniae (setting [12]) was determined as 0.19 µg/mL; against Klebsiella pneumoniae (setting [13]), 0.19 µg/mL; against Proteus inconstans, 0.025 µg/mL; in the assay on Proteus mirabilis (setting [14]), 0.1 µg/mL; in the assay on Proteus mirabilis (setting [15]), 0.78 µg/mL; in the assay on Proteus rettgeri it was 0.05 µg/mL. Moreover, the MIC worked out at 0.39 µg/mL against Proteus vulgaris (setting [16]); 0.19 µg/mL in the assay with Proteus vulgaris (setting [17]); 0.19 µg/mL against Proteus vulgaris (setting [18]); 1.6 µg/mL against Serratia marcescens (setting [19]); 0.78 µg/mL against Serratia marcescens (setting [20]); 3.1 µg/mL in the assay with Streptococcus pyogenes.
